# From patent publication US20250313548A1 (Actio Biosciences, Inc., priority 2023, published 2025)
# Biological target: human, KCNT1 (Homo sapiens (Human), UniProt Q5JUK3)
# Assay: FLIPR Tl/K Flux Assay
# Type: cell-based
# Conditions: HEK293 cells stably expressing human KCNT1; Tl+ flux stimulated with EC80 of agonist Loxapine
# Outline: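 Inhibition values come from a Hill-equation fit of % inhibition versus log concentration, using normalized fluorescence (Fmax/Fmin) over a 160 s read. The read followed stimulation with Tl+ plus EC80 agonist loxapine after 30 min compound pre-incubation at 25 °C. Cells were KCNT1-expressing HEK293, dye-loaded 1 h in pH 7.4 HEPES/HBSS with 5 mM probenecid.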
# human, KCNT1, sequence (Q5JUK3 whole entry): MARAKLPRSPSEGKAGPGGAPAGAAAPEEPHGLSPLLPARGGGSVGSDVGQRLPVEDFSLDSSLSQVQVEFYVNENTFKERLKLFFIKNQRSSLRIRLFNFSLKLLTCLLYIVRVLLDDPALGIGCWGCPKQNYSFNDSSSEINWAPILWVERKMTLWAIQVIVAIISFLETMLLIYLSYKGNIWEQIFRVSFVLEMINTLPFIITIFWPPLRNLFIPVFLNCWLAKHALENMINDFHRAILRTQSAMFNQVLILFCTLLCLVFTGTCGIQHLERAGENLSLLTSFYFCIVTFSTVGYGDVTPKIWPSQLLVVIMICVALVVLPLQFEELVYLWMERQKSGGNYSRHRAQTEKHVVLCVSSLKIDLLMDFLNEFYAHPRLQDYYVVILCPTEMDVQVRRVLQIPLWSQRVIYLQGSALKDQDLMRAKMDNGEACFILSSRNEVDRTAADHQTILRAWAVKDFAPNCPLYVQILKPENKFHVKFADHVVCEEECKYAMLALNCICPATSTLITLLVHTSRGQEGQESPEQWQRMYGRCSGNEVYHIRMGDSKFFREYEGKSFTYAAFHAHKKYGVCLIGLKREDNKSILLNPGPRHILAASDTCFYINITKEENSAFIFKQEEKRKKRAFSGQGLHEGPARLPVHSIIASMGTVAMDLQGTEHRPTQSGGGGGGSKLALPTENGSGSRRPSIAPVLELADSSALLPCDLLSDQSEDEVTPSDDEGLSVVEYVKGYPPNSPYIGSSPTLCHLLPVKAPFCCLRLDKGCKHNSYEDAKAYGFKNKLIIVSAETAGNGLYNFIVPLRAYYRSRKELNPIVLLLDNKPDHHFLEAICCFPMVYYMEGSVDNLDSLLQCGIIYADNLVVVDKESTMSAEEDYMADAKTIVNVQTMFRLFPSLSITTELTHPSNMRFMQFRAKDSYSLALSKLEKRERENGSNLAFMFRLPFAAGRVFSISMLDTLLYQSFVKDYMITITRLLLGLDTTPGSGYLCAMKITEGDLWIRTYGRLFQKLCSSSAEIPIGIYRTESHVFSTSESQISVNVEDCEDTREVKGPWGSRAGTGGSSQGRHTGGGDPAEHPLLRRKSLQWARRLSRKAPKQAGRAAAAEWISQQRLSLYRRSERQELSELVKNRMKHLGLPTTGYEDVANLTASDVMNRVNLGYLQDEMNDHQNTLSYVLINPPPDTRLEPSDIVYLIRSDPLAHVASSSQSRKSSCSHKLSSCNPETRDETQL
row,SMILES,IC50
1,CC(C)(C)C(=O)N[C@@H]1CCc2nn(-c3ccnc(C(F)(F)F)c3)cc21 [Compound I-104b],> 1000 nM
2,O=C(N[C@@H]1CCc2nn(-c3ccnc(C(F)(F)F)c3)cc21)c1ccccc1 [Compound I-91b],> 1000 nM
3,COc1ccccc1C(=O)N[C@@H]1CCc2nn(-c3ccnc(C(F)(F)F)c3)cc21 [Compound I-94b],> 1000 nM
4,"Cc1cnc(C(F)(F)F)cc1-c1cc2n(n1)CCCC[C@@H]2NC(=O)c1cc(C(F)(F)F)nn1C [Compound I-311a, (S)-1-Methyl-N-(2-(5-methyl-2-(trifluoromethyl)pyridin-4-yl)-5,6,7,8-tetrahydro-4H-pyrazolo[1,5-a]azepin-4-yl)-3-(trifluoromethyl)-1H-pyrazole-5-carboxamide]",< 250 nM
5,"O=C(N[C@H]1CCCn2nc(-c3ccnc(C(F)(F)F)c3)cc21)c1cccc(C(F)(F)F)c1 [Compound I-290a, (S)-3-(Trifluoromethyl)-N-(2-(2-(trifluoromethyl)pyridin-4-yl)-4,5,6,7-tetrahydropyrazolo[1,5-a]pyridin-4-yl)benzamide]",< 250 nM
6,"Cn1nc(C(F)(F)F)nc1C(=O)N[C@H]1CCCn2nc(-c3ccnc(C(C)(F)F)c3)cc21 [Compound I-551a, (S)-N-(2-(2-(1,1-Difluoroethyl)pyridin-4-yl)-4,5,6,7-tetrahydropyrazolo[1,5-a]pyridin-4-yl)-1-methyl-3-(trifluoromethyl)-1H-1,2,4-triazole-5-carboxamide]",< 250 nM
7,"Cn1nc(C(F)(F)F)cc1C(=O)N[C@H]1CCCn2nc(-c3ccnc(C(F)(F)F)c3)nc21 [Compound I-86a, (S)-1-Methyl-3-(trifluoromethyl)-N-(2-(2-(trifluoromethyl)pyridin-4-yl)-5,6,7,8-tetrahydro-[1,2,4]triazolo[1,5-a]pyridin-8-yl)-1H-pyrazole-5-carboxamide]",< 250 nM
8,"Cn1nc(C(F)(F)F)cc1CC(=O)N[C@H]1CCCc2nn(-c3ccnc(C(F)(F)F)c3)cc21 [Compound I-53a, (S)-2-(1-Methyl-3-(trifluoromethyl)-1H-pyrazol-5-yl)-N-(2-(2-(trifluoromethyl)pyridin-4-yl)-4,5,6,7-tetrahydro-2H-indazol-4-yl)acetamide]",> 1000 nM
9,"Cc1cc(F)cc(C(=O)N[C@H]2CCc3nn(-c4ccnc(C(F)(F)F)c4)cc32)c1 (single isomer, unassigned) [Compound I-384a]",< 250 nM
10,CC(C)c1cc(-n2cc3c(n2)CC[C@H]3NC(=O)c2cc(C(F)(F)F)nn2C)ccn1 [Compound I-70b],> 1000 nM
11,"O=C(N[C@H]1CCCc2oc(-c3cc(C(F)(F)F)ncc3F)nc21)c1cccc(C(F)(F)F)c1 [Compound I-554a, (S)—N-(2-(5-Fluoro-2-(trifluoromethyl)pyridin-4-yl)-4,5,6,7-tetrahydrobenzo[d]oxazol-4-yl)-3-(trifluoromethyl)benzamide]",< 250 nM
12,COc1cc(-c2nc3c(o2)[C@@H](NC(=O)c2ccnc(OC(F)(F)F)c2)CCC3)c(Cl)cn1 [Compound I-163a],< 250 nM
13,"Cc1nc(C(=O)N[C@H]2CCn3nc(-c4ccnc(C(F)(F)F)c4)cc32)n(C)n1 [Compound I-221a, (S)-1,3-Dimethyl-N-(2-(2-(trifluoromethyl)pyridin-4-yl)-5,6-dihydro-4H-pyrrolo[1,2-b]pyrazol-4-yl)-1H-1,2,4-triazole-5-carboxamide]",< 250 nM
14,COc1cc(C(=O)N[C@H]2CCCn3nc(-c4ccnc(C(F)(F)F)c4)cc32)nc(C(F)(F)F)n1 [Compound I-424a],< 250 nM
15,COc1cc(-c2cc3n(n2)CCC[C@@H]3NC(=O)c2cc(Cl)cc(C(F)(F)F)c2)ccn1 [Compound I-354a],< 250 nM
16,Cn1nc(C(F)(F)F)cc1C(=O)N[C@@H]1CCCCn2nc(-c3cc(C(F)(F)F)ncc3F)cc21 [Compound I-476b],250 to 500 nM
17,"Cc1cc(C(=O)N[C@H]2CCCc3oc(-c4ccnc(C5CC5)c4)nc32)cc(C(F)(F)F)c1 [Compound I-242a, (S)-N-(2-(2-Cyclopropylpyridin-4-yl)-4,5,6,7-tetrahydrobenzo[d]oxazol-4-yl)-3-methyl-5-(trifluoromethyl)benzamide]",< 250 nM
18,O=C(N[C@H]1CCCn2nc(-c3ccnc(C(F)(F)F)c3)cc21)c1cc(C(F)(F)F)nn1C1CC1 [Compound I-371a],< 250 nM

# The remaining lines, values ahead:
row,IC50,SMILES
1,< 250 nM,"N#Cc1cccc(C(=O)N[C@H]2CCCCc3oc(-c4ccnc(C(F)(F)F)c4)nc32)c1 [Compound I-160a, (S)-3-cyano-N-(2-(2-(trifluoromethyl)pyridin-4-yl)-5,6,7,8-tetrahydro-4H-cyclohepta[d]oxazol-4-yl)benzamide]"
2,< 250 nM,"O=C(N[C@H]1CCCc2oc(-c3ccnc(C(F)(F)F)c3)nc21)c1cn(C(F)(F)F)nc1C(F)(F)F [Compound I-520a, (S)-1,3-bis(trifluoromethyl)-N-(2-(2-(trifluoromethyl)pyridin-4-yl)-4,5,6,7-tetrahydrobenzo[d]oxazol-4-yl)-1H-pyrazole-4-carboxamide]"
3,< 250 nM,"Cn1nc(C(F)(F)F)nc1C(=O)N[C@H]1CCCn2nc(-c3ccnc(C(F)(F)F)c3)cc21 [Compound I-326a, (S)-1-Methyl-3-(trifluoromethyl)-N-(2-(2-(trifluoromethyl)pyridin-4-yl)-4,5,6,7-tetrahydropyrazolo[1,5-a]pyridin-4-yl)-1H-1,2,4-triazole-5-carboxamide]"
4,< 250 nM,"Cn1nc(C(F)(F)F)nc1C(=O)N[C@H]1CCCc2oc(-c3ccnc(C4CC4)c3)nc21 [Compound I-229a, (S)-N-(2-(2-Cyclopropylpyridin-4-yl)-4,5,6,7-tetrahydrobenzo[d]oxazol-4-yl)-1-methyl-3-(trifluoromethyl)-1H-1,2,4-triazole-5-carboxamide]"
5,< 250 nM,"O=C(N[C@H]1CCn2nc(-c3cc(C4CC4)ncc3F)cc21)C12CC(C(F)(F)F)(C1)C2 [Compound I-559a, (S)-N-(2-(2-Cyclopropyl-5-fluoropyridin-4-yl)-5,6-dihydro-4H-pyrrolo[1,2-b]pyrazol-4-yl)-3-(trifluoromethyl)bicyclo[1.1.1]pentane-1-carboxamide]"
6,< 250 nM,COc1cc(-c2nc3c(o2)CCC[C@@H]3NC(=O)c2cc(C(F)(F)F)nn2C)ccn1 [Compound I-428a]
7,< 250 nM,"COc1cc(C(=O)N[C@H]2CCCn3nc(-c4ccnc(C(F)(F)F)c4)cc32)ccn1 [Compound I-330a, (S)-2-Methoxy-N-(2-(2-(trifluoromethyl)pyridin-4-yl)-4,5,6,7-tetrahydropyrazolo[1,5-a]pyridin-4-yl)isonicotinamide]"
8,< 250 nM,"N#Cc1cc(F)cc(C(=O)N[C@H]2CCCCn3nc(-c4ccnc(C5CC5)c4)cc32)c1 [Compound I-265a, (S)-3-Cyano-N-(2-(2-cyclopropylpyridin-4-yl)-5,6,7,8-tetrahydro-4H-pyrazolo[1,5-a]azepin-4-yl)-5-fluorobenzamide]"
9,< 250 nM,"O=C(N[C@H]1CCCc2oc(-c3ccnc(C4CC4)c3)nc21)c1cncc(C(F)(F)F)c1 [Compound I-137a, (S)-N-(2-(2-Cyclopropylpyridin-4-yl)-4,5,6,7-tetrahydrobenzo[d]oxazol-4-yl)-5-(trifluoromethyl)nicotinamide]"
10,< 250 nM,"O=C(NC1CCCc2nn(-c3ccnc(C(F)(F)F)c3)cc21)c1ccnc(C(F)(F)F)c1 (racemic) [Compound I-20, (rac)-2-(Trifluoromethyl)-N-(2-(2-(trifluoromethyl)pyridin-4-yl)-4,5,6,7-tetrahydro-2H-indazol-4-yl)isonicotinamide]"
